Assay results published in patent US20110039779A1, “IGF-1R BINDING PROTEINS AND ANTAGONISTS” (priority 2007, published 2011).
Where two headings read alike, the source gives them in different places. Where a SMILES comes first, the peptide text is derived from it.

Columns and labels:
[1] = molecular target: T1, HIGF-1R (Homo sapiens, UniProt P08069); assay: IGF-1R affinity, scintillation proximity assay (SPA assay), 125I-IGF1 displacement; assay type: binding
T1 construct: HIGF-1R was purified from a cell culture of BHK cells stably transfected with IGF-1R cDNA; made in house; host or cells: BHK cells stably transfected with IGF-1R cDNA
From the text: In certain cases, a scintillation proximity assay (SPA assay) was used to determine IGF-1R affinity.

[2] = test system: IGF-IR; assay: downstream signaling in L6 cells: IGF-IR; assay type: cell-based; conditions: 3 nM IGF-1, read-out: IGF-IR, IC50 for down regulation of the stimulation to the basal level
Description: (§1) The tyrosine phosphorylation of IRS signaling (the 180 kDa band on a tyrosine phosphor Western blot) as well as activation of effectors MAPK 44 and 42 and PKB were analyzed by using antibodies specific for their active forms using methods substantially similar to those described in Example 14 of the '246 PCT application.
(§2) The effect of select peptides on downstream signaling (MAPK44, MAPK42, PKB/Akt, IRS-1, and IGF-1R) was also measured by studying the signaling in L6 cells predominantly expressing IGF-1R and very limited insulin receptors. […] The antagonistic effect of the peptides can be seen to affect all the downstream signaling from the IGF-1R.

[3] = test system: MiaPaCa cells; assay: MiaPaCa tumor growth inhibition in nude mice; assay type: in vivo
Description: Nude mice were inoculated with MiaPaCa cells (one million cells in matrigel) on the flank and followed until tumors reached a volume of greater than 100 mm^3. […] Animals were injected by the subcutaneous route 4 times per week for 3 weeks and followed for an additional 2 weeks without injections. Tumors were measured twice weekly. Animals were sacrificed and the tumors excised, weighed and photographed.

[4] = test system: MAPK44; assay: downstream signaling in L6 cells: MAPK44; assay type: cell-based; conditions: 3 nM IGF-1, read-out: MAPK44, IC50 for down regulation of the stimulation to the basal level
Description: as §1, §2

[5] = test system: PKB/Akt; assay: downstream signaling in L6 cells: PKB/Akt; assay type: cell-based; conditions: 3 nM IGF-1, read-out: PKB/Akt, IC50 for down regulation of the stimulation to the basal level
Description: as §1, §2

[6] = test system: SW480 cells; assay type: cell-based; conditions: for IC50: read-out: IC50, inhibition of IGF-1 (10 nM)-induced proliferation of SW480 cells
Description: For cell growth/density studies, a mitochondrial activity assay was used, as exemplified by the following. Cells (SW480, MCF-7S8) were propagated in complete medium (DME: F12, 10% FCS (SW 480) or 5% FCS (MCF-7S8, P/S)), trypsinized, and seeded in 96 well plates as 10,000 cells/well in medium with 0.5% FCS. All wells in the periphery were omitted and only filled with medium. […] All treatments are made in triplicates. […] Treatment was continued for 48 hours (SW480 cells) or 72 hours (MCF-7S8 cells) before quantification of the cell density. Media was exchanged each day. Media and peptides were diluted in DMSO. When measuring cell density, the volume of each well was adjusted to […] Pre-diluted WST-1 (1 ml+1.5 ml DME:F12) was added as 25 μL to each well including background samples. Three wells with media only served as background controls. The cells were incubated for 90 min protected against light in an incubator.

[7] = test system: IRS-1; assay: downstream signaling: IRS-1 tyrosine phosphorylation; assay type: cell-based; conditions: for IC50: L6 cells, 3 nM IGF-1, read-out: IRS-1, IC50 for down regulation of the stimulation to the basal level
Description: as §1, §2

[8] = molecular target: MCF7 cells (Homo sapiens, UniProt P08069); assay: antagonism assay in starved MCF7 cells, luminescence viability, 72 hrs; assay type: cell-based; conditions: Table 9
Description: Additional binding and antagonism assays using candidate peptides were performed. […] Cell viability was determined by luminescence assay and IC50 was calculated using standard techniques.

[9] = test system: MiaPaCa cells; assay: gene expression changes in MiaPaCa cells (gene arrays); assay type: cell-based, human; conditions: IGF-1 (25 ng/ml) +/− ANT-429, 24 hours
[10] = test system: MAPK42; assay: downstream signaling in L6 cells: MAPK42; assay type: cell-based; conditions: 3 nM IGF-1, read-out: MAPK42, IC50 for down regulation of the stimulation to the basal level
Description: as §1, §2

[11] = test system: SGBS adipocytes transfected with HIR-encoding DNA; assay: 3H glucose incorporation (insulin agonist activity) in SGBS adipocytes; assay type: cell-based
Description: Insulin increases uptake of ^3H glucose into adipocytes and its conversion into lipid. Incorporation of ^3H into the lipid phase was determined by partitioning of lipid phase into a scintillant mixture, which excludes water-soluble ^3H products. […] The results are expressed as increase relative to full insulin response.

[12] = molecular target: T2, IGF-1R on L6 (with mainly symmetric IGF-1R) (Rattus norvegicus, UniProt P24062); assay: displacement of IGF-1 binding on L6 cells
T2 construct: L6 cells predominantly expressing IGF-1R and very limited insulin receptors; endogenous in cells; host or cells: L6 cells

[13] = molecular target: human insulin receptor (HIR) (Homo sapiens, UniProt P06213); assay: human insulin receptor (HIR) affinity; assay type: binding; conditions: printed in brackets under the HIR affinity, not explained
Description: IGF-1R affinity studies were generally performed as follows. […] HIGF-1R was purified from a cell culture of BHK cells stably transfected with IGF-1R cDNA. The day before harvest cells were moved to serum free conditions and before harvest the cells were rinsed with and ice cold PBS solution. The cells were solubilized in cold lysis buffer (4 ml lysis buffer/1×10^8 cells); vortexed vigorously to lysis in lysis buffer (50 mM Hepes (pH 8.0); 150 mM NaCl; 1% Triton X-100; 2 mM EDTA; 10 μg/mlaprotinin; 0.5 mM PEFABLOC (Roche)); and the lysate centrifuged at 4° C., 20000 rpm, for 15 minutes. The HIGF-1R portion was absorbed to WGA-agarose beads and subjected to chromatography purification (Pharmacia biotech No 17-0760-01) (column washed with 20× column volumes wash buffer −50 mM Hepes (pH 8.0); 150 mM NaCl; 0.1% Triton X-100; 0.5 mM PEFABLOC (Roche)). The HIGF-1R portion was then eluted with 0.5 M n-Acetyl Glycosamine (NAG), 10% Glycerol in elution buffer (50 mM Hepes (pH 8.0); 150 mM NaCl; 0.1% Triton X-100; 0.5 mM PEFABLOC (Roche); 0.5 M n-acetyl glucosamine; 10% glycerol). […] After equilibration for 2 days at 4° C., each sample (200 μl) typically was precipitated by addition of 400 μl 25% PEG 6000, centrifuged, washed with 1 ml 15% PEG 6000, and counted in a gamma-counter. In some cases, human insulin receptor (HIR) affinity for select test peptides was similarly measured.

[14] = test system: insulin receptor/IGF-1R; assay: tyrosine phosphorylation of insulin receptor/IGF-1R in L6-hIR cells (Western blot); assay type: cell-based

Sequence of human insulin receptor (HIR) (P06213 28-758 limits assumed): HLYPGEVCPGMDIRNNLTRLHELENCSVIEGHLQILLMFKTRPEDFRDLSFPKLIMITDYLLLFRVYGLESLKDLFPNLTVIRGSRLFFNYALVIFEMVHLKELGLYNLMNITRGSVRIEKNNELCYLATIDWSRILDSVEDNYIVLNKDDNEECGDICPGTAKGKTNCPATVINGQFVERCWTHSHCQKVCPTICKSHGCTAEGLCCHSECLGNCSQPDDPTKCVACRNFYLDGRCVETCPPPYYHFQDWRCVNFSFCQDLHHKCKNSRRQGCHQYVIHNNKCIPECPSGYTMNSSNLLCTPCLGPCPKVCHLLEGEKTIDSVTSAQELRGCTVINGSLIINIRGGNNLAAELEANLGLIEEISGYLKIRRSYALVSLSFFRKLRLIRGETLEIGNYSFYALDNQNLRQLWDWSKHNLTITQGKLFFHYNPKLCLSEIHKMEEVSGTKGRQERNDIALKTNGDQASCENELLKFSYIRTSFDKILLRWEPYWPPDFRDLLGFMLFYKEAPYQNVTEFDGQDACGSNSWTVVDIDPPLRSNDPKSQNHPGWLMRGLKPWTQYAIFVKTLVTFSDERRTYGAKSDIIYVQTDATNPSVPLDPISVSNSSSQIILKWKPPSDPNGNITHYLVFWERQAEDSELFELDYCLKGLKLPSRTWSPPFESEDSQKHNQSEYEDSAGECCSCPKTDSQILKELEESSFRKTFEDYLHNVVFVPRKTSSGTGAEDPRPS
Sequence of human insulin receptor (HIR) (P06213 763-1382 limits assumed): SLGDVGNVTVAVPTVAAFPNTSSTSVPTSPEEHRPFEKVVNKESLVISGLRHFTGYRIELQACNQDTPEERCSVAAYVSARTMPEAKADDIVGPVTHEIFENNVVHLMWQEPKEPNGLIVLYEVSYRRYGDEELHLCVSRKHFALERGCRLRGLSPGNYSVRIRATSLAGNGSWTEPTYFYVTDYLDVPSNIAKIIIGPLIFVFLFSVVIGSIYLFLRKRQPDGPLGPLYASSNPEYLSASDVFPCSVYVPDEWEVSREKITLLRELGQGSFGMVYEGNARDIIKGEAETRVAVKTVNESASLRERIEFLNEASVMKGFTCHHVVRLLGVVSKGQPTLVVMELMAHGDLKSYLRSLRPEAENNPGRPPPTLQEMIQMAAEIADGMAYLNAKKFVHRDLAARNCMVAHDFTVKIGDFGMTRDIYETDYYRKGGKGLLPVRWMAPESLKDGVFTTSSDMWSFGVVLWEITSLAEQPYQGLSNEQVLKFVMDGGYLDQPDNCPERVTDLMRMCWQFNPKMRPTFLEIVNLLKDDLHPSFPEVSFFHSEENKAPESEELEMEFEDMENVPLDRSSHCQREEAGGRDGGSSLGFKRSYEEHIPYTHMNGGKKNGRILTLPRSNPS
T2 sequence (P24062 31-737 limits assumed): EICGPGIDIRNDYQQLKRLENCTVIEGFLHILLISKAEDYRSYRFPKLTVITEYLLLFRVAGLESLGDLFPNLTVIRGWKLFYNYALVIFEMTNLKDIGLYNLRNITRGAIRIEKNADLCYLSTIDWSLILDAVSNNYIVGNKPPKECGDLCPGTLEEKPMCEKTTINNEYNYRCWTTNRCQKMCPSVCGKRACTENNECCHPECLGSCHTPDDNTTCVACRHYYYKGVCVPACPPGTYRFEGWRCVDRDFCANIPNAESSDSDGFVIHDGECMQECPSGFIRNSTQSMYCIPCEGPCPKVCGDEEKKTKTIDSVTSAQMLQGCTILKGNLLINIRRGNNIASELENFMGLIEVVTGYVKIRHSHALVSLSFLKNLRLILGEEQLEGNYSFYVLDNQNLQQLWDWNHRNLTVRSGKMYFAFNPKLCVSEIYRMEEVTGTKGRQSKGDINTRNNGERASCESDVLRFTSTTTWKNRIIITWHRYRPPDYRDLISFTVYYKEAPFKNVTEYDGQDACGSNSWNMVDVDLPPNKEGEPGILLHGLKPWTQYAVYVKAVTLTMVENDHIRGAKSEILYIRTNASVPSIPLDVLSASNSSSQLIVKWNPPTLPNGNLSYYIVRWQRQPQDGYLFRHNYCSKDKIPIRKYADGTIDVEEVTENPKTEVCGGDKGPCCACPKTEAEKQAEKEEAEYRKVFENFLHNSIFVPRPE
T2 sequence (P24062 742-1370 limits assumed): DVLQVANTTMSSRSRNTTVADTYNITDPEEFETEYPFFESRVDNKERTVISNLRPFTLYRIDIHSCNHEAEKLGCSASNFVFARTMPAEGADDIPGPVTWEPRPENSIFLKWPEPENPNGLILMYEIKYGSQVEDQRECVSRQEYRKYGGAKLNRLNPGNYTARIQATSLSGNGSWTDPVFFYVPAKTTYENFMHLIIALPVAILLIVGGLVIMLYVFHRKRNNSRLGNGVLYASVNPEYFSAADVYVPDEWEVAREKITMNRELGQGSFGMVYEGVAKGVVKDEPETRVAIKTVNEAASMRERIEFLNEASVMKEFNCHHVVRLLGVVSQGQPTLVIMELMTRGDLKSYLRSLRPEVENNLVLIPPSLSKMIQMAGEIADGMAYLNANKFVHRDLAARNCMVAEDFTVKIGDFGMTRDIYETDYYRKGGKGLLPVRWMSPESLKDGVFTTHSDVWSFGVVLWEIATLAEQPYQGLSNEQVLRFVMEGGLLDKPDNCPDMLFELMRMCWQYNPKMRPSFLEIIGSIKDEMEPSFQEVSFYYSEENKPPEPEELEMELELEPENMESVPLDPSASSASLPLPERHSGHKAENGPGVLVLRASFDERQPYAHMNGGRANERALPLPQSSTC
T1 sequence (P08069 31-736 limits assumed): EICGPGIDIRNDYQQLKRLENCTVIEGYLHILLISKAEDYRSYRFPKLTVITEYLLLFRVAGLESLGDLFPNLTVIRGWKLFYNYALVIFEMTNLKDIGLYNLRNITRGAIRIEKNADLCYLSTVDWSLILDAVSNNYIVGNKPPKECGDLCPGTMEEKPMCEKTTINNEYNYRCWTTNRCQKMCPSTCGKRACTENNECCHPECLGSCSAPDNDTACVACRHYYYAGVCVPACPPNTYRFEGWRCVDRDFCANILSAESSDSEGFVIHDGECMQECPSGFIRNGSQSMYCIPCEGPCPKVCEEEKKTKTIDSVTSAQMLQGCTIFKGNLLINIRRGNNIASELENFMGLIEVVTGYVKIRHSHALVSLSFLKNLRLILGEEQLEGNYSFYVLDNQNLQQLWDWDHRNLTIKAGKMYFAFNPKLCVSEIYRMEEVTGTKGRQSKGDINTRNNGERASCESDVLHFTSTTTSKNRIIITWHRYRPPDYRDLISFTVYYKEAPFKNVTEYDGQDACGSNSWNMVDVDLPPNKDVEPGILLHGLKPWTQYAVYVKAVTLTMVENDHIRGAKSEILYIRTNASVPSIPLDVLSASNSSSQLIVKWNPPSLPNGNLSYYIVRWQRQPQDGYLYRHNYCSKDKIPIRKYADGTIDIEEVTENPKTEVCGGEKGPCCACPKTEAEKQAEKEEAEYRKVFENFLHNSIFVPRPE
T1 sequence (P08069 741-1367 limits assumed): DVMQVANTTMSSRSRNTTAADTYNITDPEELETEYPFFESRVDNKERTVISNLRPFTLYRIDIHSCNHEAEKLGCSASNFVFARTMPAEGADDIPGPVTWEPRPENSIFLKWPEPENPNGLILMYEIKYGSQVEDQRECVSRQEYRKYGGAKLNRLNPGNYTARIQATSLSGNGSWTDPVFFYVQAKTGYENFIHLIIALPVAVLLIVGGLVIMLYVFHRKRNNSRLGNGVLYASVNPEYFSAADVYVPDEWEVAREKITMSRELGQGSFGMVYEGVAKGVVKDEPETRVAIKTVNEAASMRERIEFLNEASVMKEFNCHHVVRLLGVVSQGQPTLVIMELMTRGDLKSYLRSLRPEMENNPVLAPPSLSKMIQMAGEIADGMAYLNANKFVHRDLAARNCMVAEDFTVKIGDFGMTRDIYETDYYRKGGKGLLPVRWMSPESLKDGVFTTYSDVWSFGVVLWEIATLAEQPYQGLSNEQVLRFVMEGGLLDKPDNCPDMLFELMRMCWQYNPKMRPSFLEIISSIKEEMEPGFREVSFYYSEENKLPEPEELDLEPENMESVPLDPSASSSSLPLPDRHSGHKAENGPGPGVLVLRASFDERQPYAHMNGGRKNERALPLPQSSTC
Sequence of MCF7 cells (P08069 31-736): as the sequence (P08069 31-736 limits assumed) above

Compound: CC(C)C[C@H](NC(=O)[C@H](CCC(=O)O)NC(=O)[C@H](CCC(=O)O)NC(=O)[C@H](CS)NC(=O)[C@H](CO)NC(=O)[C@H](Cc1ccc(O)cc1)NC(=O)[C@H](Cc1ccccc1)NC(=O)[C@@H](N)CO)C(=O)N[C@H](C(=O)N[C@@H](CCC(N)=O)C(=O)NCC(=O)N1CCC[C@H]1C(=O)N[C@@H](C)C(=O)N[C@@H](CCC(=O)O)C(=O)N[C@@H](CCCCN)C(=O)N[C@@H](CO)C(=O)N[C@@H](CCCCN)C(=O)NCC(=O)N[C@@H](CCC(N)=O)C(=O)N[C@@H](Cc1c[nH]c2ccccc12)C(=O)N[C@@H](CCC(=O)O)C(=O)NCC(=O)N[C@@H](CS)C(=O)N[C@@H](CCCCN)C(=O)N[C@@H](CCCCN)C(=O)O)C(C)C [Peptide F370] (H-SFYSCEELVQGPAEKSKGQWEGCKK-OH)
- Kd [1]: 23 µM

Compound: DFYGCLLDLSLGVPSLGWRRRCITA [Peptide F429]
- IC50 [2]: 0.05 µM
- complete remission, animals ([3]; […] (50 ug/injection)): one
- animals responding to treatment ([3]; […] (50 ug/injection), subcutaneous 4 times per week for 3 weeks): Two out of five
- tumor growth ([3]; group printed as 15 mg/kg (design: 300 ug/injection, 12 mg/kg), subcutaneous 4 times per week for 3 weeks): significant inhibition of growth
- complete remission, animals ([3]; group printed as 15 mg/kg, subcutaneous 4 times per week for 3 weeks): one
- IC50 [4]: 0.1 µM
- IC50 [5]: 0.1 µM
- IC50 ([6]; experiment 13717-019): 0.5 µM
- IC50 ([6]; experiment 13717-027): 1 µM
- potency for inhibiting down stream signaling through IRS-1 upon IGF-1 stimulation ([7]; +/−3 nM IGF-1, FIG. 7 and FIG. 8): potency of F429 is higher than F138
- IC50 [7]: 0.04 µM
- Activity [8]: Antagonist
- changes in apoptosis gene expression [9]: modulate apoptosis genes
- IC50 [10]: 0.3 µM

Compound: QFYGCLLDLSLGVPSFGWRRRCITA [Peptide F138]
- effect on glucose uptake induced by insulin or IGF-1 ([11]; SGBS adipocytes, FIGS. 1A and 1B): neither peptide F138 nor peptide F293 has any substantial effect on glucose uptake induced by insulin or IGF-1
- doses not affecting glucose uptake in response to insulin/IGF-1 ([11]; SGBS cells): < 5 µM
- concentration displacing IGF-1 binding to IGF-1R on L6 [12]: 100 nM
- HIR affinity, value in brackets [13]: (0.013%)
- inhibition of IGF-1 induced versus insulin induced phosphorylation [14]: Some selectivity for inhibiting IGF-1 induced tyrosine phosphorylation as compared to insulin induced phosphorylation
- IC50 in SW480 (M) in presence of IGF-1/alone: in presence of IGF-1 ([6]; first value of the cell: concentration needed to blunt the effect of 10 nM IGF-1, cells in words only = effect as reported, 48 hours): Antagonistic
- inhibition of basal growth of SW480, doses ([6]; without IGF-1): > 100 nM
- IC50 [7]: 0.3 µM
- IC50 [10]: 0.3 µM
